Experimental data: patent US20120245213A1, “HUMAN TYPE I TASTE RECEPTOR SUBUNIT 3 MODULATORS AND METHODS OF USING SAME” (priority 2009, published 2012)
Like-named read-outs stand apart in the source and are kept apart here. Each block holds one compound with its values, some of them ahead of it.

Experiments:
[1] = target: T1, human T1R2+T1R3 receptor (Homo sapiens, UniProt Q7RTX0); assay: Heterologous calcium mobilization assay, HEK293 cells expressing human sweet receptor; type: cell-based; details: for inhibition of the human sweet receptor: at up to 500 μM
T1 construct: expressed in transfected cells; host or cells: HEK293E
T1 sequence (Q7RTX0 21-852): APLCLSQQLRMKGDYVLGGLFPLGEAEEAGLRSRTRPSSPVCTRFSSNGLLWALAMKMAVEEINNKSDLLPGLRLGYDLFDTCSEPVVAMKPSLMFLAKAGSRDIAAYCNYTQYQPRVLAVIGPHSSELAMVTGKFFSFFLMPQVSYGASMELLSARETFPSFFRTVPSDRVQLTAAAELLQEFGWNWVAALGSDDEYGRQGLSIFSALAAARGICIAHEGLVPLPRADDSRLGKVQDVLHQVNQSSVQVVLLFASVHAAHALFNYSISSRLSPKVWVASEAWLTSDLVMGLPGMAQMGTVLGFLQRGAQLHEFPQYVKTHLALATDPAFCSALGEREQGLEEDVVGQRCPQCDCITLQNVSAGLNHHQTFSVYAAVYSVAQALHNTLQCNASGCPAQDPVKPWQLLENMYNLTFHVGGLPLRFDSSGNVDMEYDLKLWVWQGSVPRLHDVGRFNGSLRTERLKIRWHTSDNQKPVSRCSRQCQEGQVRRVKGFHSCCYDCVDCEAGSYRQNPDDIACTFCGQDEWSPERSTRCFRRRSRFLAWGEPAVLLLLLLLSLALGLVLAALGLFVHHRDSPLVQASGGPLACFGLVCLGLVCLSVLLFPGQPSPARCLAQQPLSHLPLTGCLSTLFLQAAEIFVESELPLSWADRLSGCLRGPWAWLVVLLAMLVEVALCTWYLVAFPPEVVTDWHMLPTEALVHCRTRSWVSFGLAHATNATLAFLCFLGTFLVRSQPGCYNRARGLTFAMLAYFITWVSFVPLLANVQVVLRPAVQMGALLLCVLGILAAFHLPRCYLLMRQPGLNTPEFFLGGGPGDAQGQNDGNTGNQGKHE
T1 sequence (Q8TE23 20-839 partner): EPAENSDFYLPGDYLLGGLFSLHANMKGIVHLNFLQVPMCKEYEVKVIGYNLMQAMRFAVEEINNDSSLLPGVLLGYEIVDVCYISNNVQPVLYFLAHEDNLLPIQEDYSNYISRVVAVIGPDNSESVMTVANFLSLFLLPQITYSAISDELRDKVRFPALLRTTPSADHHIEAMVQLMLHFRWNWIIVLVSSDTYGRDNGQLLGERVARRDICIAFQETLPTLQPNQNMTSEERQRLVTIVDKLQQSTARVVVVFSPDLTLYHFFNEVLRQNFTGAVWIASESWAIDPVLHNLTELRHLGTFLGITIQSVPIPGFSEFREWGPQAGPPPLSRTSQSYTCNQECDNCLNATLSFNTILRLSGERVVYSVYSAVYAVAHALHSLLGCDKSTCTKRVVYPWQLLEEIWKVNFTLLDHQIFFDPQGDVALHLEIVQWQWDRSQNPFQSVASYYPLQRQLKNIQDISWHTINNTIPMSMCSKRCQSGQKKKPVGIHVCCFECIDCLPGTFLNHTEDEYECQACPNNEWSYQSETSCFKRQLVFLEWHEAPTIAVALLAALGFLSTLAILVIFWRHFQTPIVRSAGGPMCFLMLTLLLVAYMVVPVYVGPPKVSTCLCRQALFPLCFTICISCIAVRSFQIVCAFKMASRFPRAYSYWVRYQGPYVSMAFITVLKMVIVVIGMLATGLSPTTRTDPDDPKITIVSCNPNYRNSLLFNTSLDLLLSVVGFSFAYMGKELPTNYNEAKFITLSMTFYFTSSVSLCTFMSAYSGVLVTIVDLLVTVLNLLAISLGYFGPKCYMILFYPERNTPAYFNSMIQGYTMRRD
Method: T1R2+T1R3 subunits were transfected into HEK cells along with the promiscuous Gq-type protein G16-gust44. Activation of receptors by agonists was followed using the calcium-sensitive fluorescent dye fluo-4-AM in a 96-well format with the fluorescent microplate reader Flexstation II (Molecular Devices). Inhibitors were added concomitantly with the sweetener sucralose at 2.5 mM (saturating concentration). […] Fluorescence signal (F) is expressed in arbitrary units (AU). The down arrow indicates the injection of the sweetener-inhibitors mixture on the cells. […] Peak calcium signal is expressed as ΔF/F in %, normalized to control (sucralose alone). Data are from a representative experiment, means±SD, done in quadruplicate.
HEK293E cells were cultured at 37° C. in Optimem GlutaMAX culture medium (Invitrogen) supplemented with 4% dialyzed fetal bovine serum. Cells were transfected with the DNA constructs using lipofectamine-2000 according to the manufacturer's protocol (Invitrogen). Briefly, cells were seeded onto 96-well poly-D-lysine plates (Corning) at about 12,500 cells/well 18 hours prior to transfection; and co-transfected with plasmid DNAs encoding […] and G 16-gust44 (0.1 μg total DNA/well; 0.2 μl lipofectamine/well). After 24 hours, the transfected cells were washed once with the culture medium and incubated for another 24 hours. The cells were washed with HBSS supplemented with 20 mM Hepes (HBSS-H), loaded with 3 μM Fluo-4AM (Molecular Probe) in HBSS-H buffer, incubated for 1.5 hours at room temperature, and then washed with HBSS-H and maintained in HBSS-H at 25° C. […] Sweeteners were added 30 seconds after the start of the scan at 2× concentration in 50 μl of HBSS-H while monitoring fluorescence for an additional 200 seconds at 2 seconds intervals. Where tested, inhibitors were added along with sweeteners to the cells.
The data were expressed as the mean±S.E. of quadruplicate or sextuplicate of the F/F values, or were normalized as described. The bar graph and curving-fitting routines were carried out using Graph-Pad Prism 3.0 (GraphPad Software, Inc.).
To determine if phenoxy-herbicides and fibrates had inhibitory properties, a cell-based assay with HEK 293 cells expressing the human sweet receptor composed of hT1R3 and hT1R2 was used.
IC50s are means±SD from at least 3 independent experiments.

[2] = test system: sweet and umami (MSG) taste; assay: Psychophysical self-experimentation on taste; type: in vivo, human; details: self-experimentation by one of the inventors
Description: T1R3's role as a critical component of sweet and umami receptors in taste cells is well established (Zhao, supra; and Max, supra). T1R3, like gustducin, has also been implicated in glucose-sensing functions of gut endocrine cells and thereby in glucose homeostasis (Jang, supra).

[3] = HEK 293 cells, hT1R2+hT1R3, 2.5 mM sucralose, read-out: IC50, inhibition of human sweet receptor
[4] = hT1R2+hT1R3 activated by 2.5 mM sucralose, mean (SD), at least 3 independent experiments, read-out: IC50 (μM (SD))

inhibition of the human sweet receptor [1]: did not inhibit
Compound: O=C(O)CCCc1c[nH]c2ccccc12 [IBA, 4-(1H-indol-3-yl)butanoic acid]

IC50 [1, 3]: ≥ 142 µM
Compound: O=C(O)Cc1cccc2ccccc12 [NAA, naphthalen-1-ylacetic acid]

Compound: CC(Oc1cc(Cl)c(Cl)cc1Cl)C(=O)O (centres unmarked) [2,4,5TPP, 2-(2,4,5-trichlorophenoxy) propanoic acid]
IC50 [1]: 5 to 12 µM

Compound: CC(C)(Oc1ccc(Cl)cc1)C(=O)O [Clofibric acid, 2-(4-chlorophenoxy)-2-methylpropanoic acid]
inhibition of sweet taste in vivo [2]: potently inhibited
inhibition of umami (MSG) taste in vivo [2]: potently inhibited

IC50 [1, 3]: 30 to 100 µM
Compound: CC(C)(Oc1ccc(CCNC(=O)c2ccc(Cl)cc2)cc1)C(=O)O [Bezafibric acid, 2-[4-(2-{[(4-chlorophenyl)carbonyl]amino}ethyl)phenoxy]-2-methylpropanoic acid, reference compound]

Compound: Cc1cc(Cl)ccc1OC(C)C(=O)O (centres unmarked) [MCPP, 2-(4-chloro-2-methylphenoxy) propanoic acid]
IC50 [1]: 5 to 12 µM

Compound: O=C(O)Cc1ccccc1 [PAA, phenylacetic acid]
IC50 [1]: ≥ 142 µM

Compound: O=C(O)COc1ccc(Cl)cc1 [4-CPA, (4-chlorophenoxy)acetic acid]
IC50 [1]: ≥ 142 µM

inhibition of the human sweet receptor [1]: did not inhibit
IC50 [1, 4]: > 1000 µM
Compound: O=C(O)Cc1c[nH]c2ccccc12 [IAA, 1H-indol-3-ylacetic acid]

inhibition of the human sweet receptor [1]: did not inhibit
IC50 [1, 4]: > 1000 µM
Compound: O=C(O)CCc1c[nH]c2ccccc12 [IPA, 3-(1H-indol-3-yl)propanoic acid]

IC50 [1, 3]: 30 to 100 µM
Compound: Cc1ccc(C)c(OCCCC(C)(C)C(=O)O)c1 [Gemfibrozil, 5-(2,5-dimethylphenoxy)-2,2-dimethylpentanoic acid, reference compound]
